Assay results: patent US20110262502A1, “PULMONARY DELIVERY OF 17-HYDROXYPROGESTERONE CAPROATE (17-HPC)” (Prairie Pharmaceuticals LLC, priority 2010, published 2011)

Assay: API particle size distribution (Dv(10), Dv(50), Dv(90), Span)
Format: physicochemical
Details: 5% (w/w) in water, 15% Tween 80, 90 bar
Source text: In determining and characterizing particle size, e.g., particle size of an API (active pharmaceutical ingredient), the particle size parameters Dv(10), Dv(50) and Dv(90) may be used. Particle size measurements are preferably expressed in terms of Dv(10), Dv(50), and Dv(90), wherein Dv(10) refers to the particle size below which 10% of the volume of material exists; Dv(50) refers to the particle size below which 50% of the volume of material exists; and Dv(90) refers to the particle size below which 90% of the volume of material exists.
Referring to Table 5, experiments were performed with a suspension comprising the active pharmaceutical ingredient (the API), i.e., 17-HPC was the API in these experiments, wherein 17-HPC was present at approximately five percent (5%) w/w in water; and the suspension also comprised the surfactant Tween 80 at approximately 15% in these experiments (processing conditions conducted at Pressure=90 bar). […] Particle size measurements are expressed in terms of Dv(10), Dv(50), and Dv(90), wherein Dv(10) refers to the particle size below which 10% of the volume of material exists; Dv(50) refers to the particle size below which 50% of the volume of material exists; and Dv(90) refers to the particle size below which 90% of the volume of material exists). […]
Exemplary particle size reduction experiments, and characterization of API (i.e., 17-HPC) particle size distribution, using a suspension prepared without a surfactant. Referring to Table 7, particle size reduction of 17-HPC was observed without using any surfactant. Experiments were performed with a suspension comprising the active pharmaceutical ingredient (the API), i.e., 17-HPC in these experiments, in water and without a surfactant. FIG. 16 depicts an exemplary API particle size distribution profile (17-HPC is the active ingredient) after a spray-drying (SD) process. Referring again to FIG. 16, and also to Table 7, an exemplary 17-HPC particle size distribution profile was obtained after approximately 10 to 55 cycles of milling. API particle size was measured after spray drying (SD). Particle size measurements are expressed in terms of Dv(10), Dv(50), and Dv(90), wherein Dv(10) refers to the particle size below which 10% of the volume of material exists; Dv(50) refers to the particle size below which 50% of the volume of material exists; and Dv(90) refers to the particle size below which 90% of the volume of material exists).

Particle Size Dv(10) (after 8 cycles): 1.015 μm
Particle Size Dv(50) (after 8 cycles): 3.021 μm
Particle Size Dv(90) (after 8 cycles): 7.302 μm
Particle Size Span (after 8 cycles): 2.081
Particle Size Dv(10) (after 16 cycles): 1.071 μm
Particle Size Dv(50) (after 16 cycles): 2.574 μm
Particle Size Dv(90) (after 16 cycles): 5.347 μm
Particle Size Span (after 16 cycles): 1.662
Particle Size Dv(10) (after 25 cycles): 1.014 μm
Particle Size Dv(50) (after 25 cycles): 2.255 μm
Particle Size Dv(90) (after 25 cycles): 4.517 μm
Particle Size Span (after 25 cycles): 1.553
SMILES: CCCCCC(=O)O[C@]1(C(C)=O)CC[C@H]2[C@@H]3CCC4=CC(=O)CC[C@]4(C)[C@H]3CC[C@@]21C [17HPC, 17α-HYDROXYPROGESTERONE CAPROATE]
